Measurements from patent US11178873B2, “Cyclic N-carboxamide compounds useful as herbicides” (FMC CORPORATION, priority 2015, dated 2021).

Tests used:
Assay type in all cases: in vivo
[1] = system: ragweed (common ragweed, Ambrosia elatior); experiment: Test A preemergence, ragweed; details: 0 to 100 scale, 0 no effect, 100 complete control
Text: (§1) Seeds of plant species selected from barnyardgrass (Echinochloa crus-galli), crabgrass, large (large crabgrass, Digitaria sanguinalis), kochia (Kochia scoparia), ragweed (common ragweed, Ambrosia elatior), morningglory (Ipomoea spp.), velvetleaf (Abutilon theophrasti), ryegrass, Italian (Italian ryegrass, Lolium multiflorum), foxtail, giant (giant foxtail, Setaria faberii), wheat (Triticum aestivum), corn (Zea mays), and pigweed (Amaranthus retroflexus), were planted into a blend of loam soil and sand and treated preemergence with a directed soil spray using test chemicals formulated in a non-phytotoxic solvent mixture which included a surfactant. At the same time, plants selected from these crop and weed species and also blackgrass (Alopecurus myosuroides), and galium (catchweed bedstraw, Galium aparine), were planted in pots containing the same blend of loam soil and sand and treated with postemergence applications of test chemicals formulated in the same manner. Plants ranged in height from 2 to 10 cm and were in the one- to two-leaf stage for the postemergence treatment. Treated plants and untreated controls were maintained in a greenhouse for approximately 10 d, after which time all treated plants were compared to untreated controls and visually evaluated for injury. Plant response ratings, summarized in Table A, are based on a 0 to 100 scale where 0 is no effect and 100 is complete control. A dash (-) response means no test result.

kochia (Kochia scoparia) [2] = experiment: Test A preemergence, kochia; details: 0 to 100 scale, 0 no effect, 100 complete control
Text: as §1

[3] = system: ragweed (common ragweed, Ambrosia elatior); experiment: Test A postemergence, ragweed; details: 0 to 100 scale, 0 no effect, 100 complete control
Text: as §1

[4] = system: barnyardgrass (Echinochloa crus-galli); experiment: Test B flooded paddy test, barnyardgrass; details: Flood, 250 g ai/ha; scale 0 to 100 (0 no effect, 100 complete control); 13 to 15 d
Method: (§2) Plant species in the flooded paddy test selected from rice (Oryza sativa), sedge, umbrella (small-flower umbrella sedge, Cyperus difformis), ducksalad (Heteranthera limosa), and barnyardgrass (Echinochloa crus-galli) were grown to the 2-leaf stage for testing. At time of treatment, test pots were flooded to 3 cm above the soil surface, treated by application of test compounds directly to the paddy water, and then maintained at that water depth for the duration of the test. Treated plants and controls were maintained in a greenhouse for 13 to 15 d, after which time all species were compared to controls and visually evaluated. Plant response ratings, summarized in Table B, are based on a scale of 0 to 100 where 0 is no effect and 100 is complete control. A dash (-) response means no test result.

[5] = system: ryegrass, Italian (Italian ryegrass, Lolium multiflorum); experiment: Test A postemergence, ryegrass, Italian; details: 0 to 100 scale, 0 no effect, 100 complete control
Text: as §1

[6] = system: pigweed (Amaranthus retroflexus); experiment: Test A preemergence, pigweed; details: 0 to 100 scale, 0 no effect, 100 complete control
Text: as §1

kochia (Kochia scoparia) [7] = experiment: Test A postemergence, kochia; details: 0 to 100 scale, 0 no effect, 100 complete control
Text: as §1

[8] = system: ryegrass, Italian (Italian ryegrass, Lolium multiflorum); experiment: Test A preemergence, ryegrass, Italian; details: 0 to 100 scale, 0 no effect, 100 complete control
Text: as §1

[9] = system: wheat (Triticum aestivum); experiment: Test A postemergence, wheat; details: 0 to 100 scale, 0 no effect, 100 complete control
Text: as §1

[10] = system: foxtail, giant (giant foxtail, Setaria faberii); experiment: Test A preemergence, foxtail, giant; details: 0 to 100 scale, 0 no effect, 100 complete control
Text: as §1

[11] = system: barnyardgrass (Echinochloa crus-galli); experiment: Test A preemergence, barnyardgrass; details: 0 to 100 scale, 0 no effect, 100 complete control
Text: as §1

[12] = system: blackgrass (Alopecurus myosuroides); experiment: Test A postemergence, blackgrass; details: 0 to 100 scale, 0 no effect, 100 complete control
Text: as §1

[13] = system: barnyardgrass (Echinochloa crus-galli); experiment: Test A postemergence, barnyardgrass; details: 0 to 100 scale, 0 no effect, 100 complete control
Text: as §1

[14] = system: pigweed (Amaranthus retroflexus); experiment: Test A postemergence, pigweed; details: 0 to 100 scale, 0 no effect, 100 complete control
Text: as §1

corn (Zea mays) = experiment: Test A postemergence, corn; details: 0 to 100 scale, 0 no effect, 100 complete control
Text: as §1

[15] = system: foxtail, giant (giant foxtail, Setaria faberii); experiment: Test A postemergence, foxtail, giant; details: 0 to 100 scale, 0 no effect, 100 complete control
Text: as §1

[16] = system: galium (catchweed bedstraw, Galium aparine); experiment: Test A postemergence, galium; details: 0 to 100 scale, 0 no effect, 100 complete control
Text: as §1

rice (Oryza sativa) = experiment: Test B flooded paddy test, rice; details: Flood, 250 g ai/ha; scale 0 to 100 (0 no effect, 100 complete control); 13 to 15 d
Method: as §2

[17] = system: ducksalad (Heteranthera limosa); experiment: Test B flooded paddy test, ducksalad; details: Flood, 250 g ai/ha; scale 0 to 100 (0 no effect, 100 complete control); 13 to 15 d
Method: as §2

[18] = system: sedge, umbrella (small-flower umbrella sedge, Cyperus difformis); experiment: Test B flooded paddy test, sedge, umbrella; details: Flood, 250 g ai/ha; scale 0 to 100 (0 no effect, 100 complete control); 13 to 15 d
Method: as §2

Compound	Plant response rating, Ragweed ([1]; 31 g ai/ha)	Plant response rating, Ragweed ([1]; 125 g ai/ha)	Plant response rating, Kochia (kochia (Kochia scoparia) [2]; 31 g ai/ha)	Plant response rating, Kochia (kochia (Kochia scoparia) [2]; 125 g ai/ha)	Plant response rating, Ragweed ([3]; 31 g ai/ha)	Plant response rating, Ragweed ([3]; 125 g ai/ha)	Plant response rating, Barnyardgrass [4]	Plant response rating, Ryegrass, Italian ([5]; 31 g ai/ha)	Plant response rating, Ryegrass, Italian ([5]; 125 g ai/ha)	Plant response rating, Pigweed ([6]; 31 g ai/ha)	Plant response rating, Pigweed ([6]; 125 g ai/ha)	Plant response rating, Kochia (kochia (Kochia scoparia) [7]; 31 g ai/ha)	Plant response rating, Kochia (kochia (Kochia scoparia) [7]; 125 g ai/ha)	Plant response rating, Ryegrass, Italian ([8]; 31 g ai/ha)	Plant response rating, Ryegrass, Italian ([8]; 125 g ai/ha)	Plant response rating, Wheat ([9]; 31 g ai/ha)	Plant response rating, Wheat ([9]; 125 g ai/ha)	Plant response rating, Foxtail, Giant ([10]; 31 g ai/ha)	Plant response rating, Foxtail, Giant ([10]; 125 g ai/ha)	Plant response rating, Barnyardgrass ([11]; 31 g ai/ha)	other results
CN1CC(c2ccc(C(F)(F)F)cc2)N(C(=O)Nc2ccccc2F)C1=O (stereo not drawn) [Compound 13]	0	0	0	0	0	0	10	0	0	0	0	0	0	0	0	0	0	0	0	0	Plant response rating, Barnyardgrass ([11]; 125 g ai/ha): 0; Plant response rating, Blackgrass ([12]; 31 g ai/ha): 0; Plant response rating, Blackgrass ([12]; 125 g ai/ha): 0; Plant response rating, Barnyardgrass ([13]; 31 g ai/ha): 0; Plant response rating, Barnyardgrass ([13]; 125 g ai/ha): 0; Plant response rating, Pigweed ([14]; 31 g ai/ha): 0; Plant response rating, Pigweed ([14]; 125 g ai/ha): 0; Plant response rating, Corn (corn (Zea mays); 31 g ai/ha): 0; Plant response rating, Corn (corn (Zea mays); 125 g ai/ha): 0; Plant response rating, Foxtail, Giant ([15]; 31 g ai/ha): 0; Plant response rating, Foxtail, Giant ([15]; 125 g ai/ha): 0; Plant response rating, Galium ([16]; 31 g ai/ha): 0; Plant response rating, Galium ([16]; 125 g ai/ha): 0; Plant response rating, Rice (rice (Oryza sativa)): 0; Plant response rating, Ducksalad [17]: 70; Plant response rating, Sedge, Umbrella [18]: 0
CN1CC(c2ccc(C(F)(F)F)cc2)N(C(=O)Nc2ccc(F)cc2F)C1=O (stereo not drawn) [Compound 15]	0	0	0	0	0	0	10	0	0	0	0	0	0	0	0	0	0	0	0	0	Plant response rating, Barnyardgrass ([11]; 125 g ai/ha): 0; Plant response rating, Blackgrass ([12]; 31 g ai/ha): 0; Plant response rating, Blackgrass ([12]; 125 g ai/ha): 0; Plant response rating, Barnyardgrass ([13]; 31 g ai/ha): 0; Plant response rating, Barnyardgrass ([13]; 125 g ai/ha): 0; Plant response rating, Pigweed ([14]; 31 g ai/ha): 0; Plant response rating, Pigweed ([14]; 125 g ai/ha): 0; Plant response rating, Corn (corn (Zea mays); 31 g ai/ha): 0; Plant response rating, Corn (corn (Zea mays); 125 g ai/ha): 0; Plant response rating, Foxtail, Giant ([15]; 31 g ai/ha): 0; Plant response rating, Foxtail, Giant ([15]; 125 g ai/ha): 0; Plant response rating, Galium ([16]; 31 g ai/ha): 0; Plant response rating, Galium ([16]; 125 g ai/ha): 0; Plant response rating, Rice (rice (Oryza sativa)): 0; Plant response rating, Ducksalad [17]: 60; Plant response rating, Sedge, Umbrella [18]: 0
CN1CC(c2cccc(C(F)(F)F)c2)N(C(=O)Nc2ccccc2F)C1=O (stereo not drawn) [Compound 16]	0	0	0	0	0	0	0	0	0	0	0	0	0	0	0	0	0	30	70	0	Plant response rating, Barnyardgrass ([11]; 125 g ai/ha): 30; Plant response rating, Blackgrass ([12]; 31 g ai/ha): 0; Plant response rating, Blackgrass ([12]; 125 g ai/ha): 0; Plant response rating, Barnyardgrass ([13]; 31 g ai/ha): 0; Plant response rating, Barnyardgrass ([13]; 125 g ai/ha): 10; Plant response rating, Pigweed ([14]; 31 g ai/ha): 0; Plant response rating, Pigweed ([14]; 125 g ai/ha): 0; Plant response rating, Corn (corn (Zea mays); 31 g ai/ha): 0; Plant response rating, Corn (corn (Zea mays); 125 g ai/ha): 0; Plant response rating, Foxtail, Giant ([15]; 31 g ai/ha): 0; Plant response rating, Foxtail, Giant ([15]; 125 g ai/ha): 10; Plant response rating, Galium ([16]; 31 g ai/ha): 0; Plant response rating, Galium ([16]; 125 g ai/ha): 0; Plant response rating, Rice (rice (Oryza sativa)): 0; Plant response rating, Ducksalad [17]: 0; Plant response rating, Sedge, Umbrella [18]: 0
CN1CC(c2cccc(C(F)(F)F)c2)N(C(=O)Nc2ccc(F)cc2F)C1=O (stereo not drawn) [Compound 17]	0	0	0	20	0	0	0	0	0	0	0	0	0	0	0	0	0	50	80	0	Plant response rating, Barnyardgrass ([11]; 125 g ai/ha): 50; Plant response rating, Blackgrass ([12]; 31 g ai/ha): 0; Plant response rating, Blackgrass ([12]; 125 g ai/ha): 0; Plant response rating, Barnyardgrass ([13]; 31 g ai/ha): 0; Plant response rating, Barnyardgrass ([13]; 125 g ai/ha): 10; Plant response rating, Pigweed ([14]; 31 g ai/ha): 0; Plant response rating, Pigweed ([14]; 125 g ai/ha): 0; Plant response rating, Corn (corn (Zea mays); 31 g ai/ha): 0; Plant response rating, Corn (corn (Zea mays); 125 g ai/ha): 0; Plant response rating, Foxtail, Giant ([15]; 31 g ai/ha): 0; Plant response rating, Foxtail, Giant ([15]; 125 g ai/ha): 10; Plant response rating, Galium ([16]; 31 g ai/ha): 0; Plant response rating, Galium ([16]; 125 g ai/ha): 0; Plant response rating, Rice (rice (Oryza sativa)): 0; Plant response rating, Ducksalad [17]: 40; Plant response rating, Sedge, Umbrella [18]: 0
CN1CC(c2cccc(C(F)(F)F)c2)N(C(=O)Nc2cccc(F)c2F)C1=O (stereo not drawn) [Compound 18]	0	0	0	0	0	0	0	0	0	0	0	0	0	0	0	0	0	70	80	20	Plant response rating, Barnyardgrass ([11]; 125 g ai/ha): 70; Plant response rating, Blackgrass ([12]; 31 g ai/ha): 0; Plant response rating, Blackgrass ([12]; 125 g ai/ha): 0; Plant response rating, Barnyardgrass ([13]; 31 g ai/ha): 10; Plant response rating, Barnyardgrass ([13]; 125 g ai/ha): 30; Plant response rating, Pigweed ([14]; 31 g ai/ha): 0; Plant response rating, Pigweed ([14]; 125 g ai/ha): 0; Plant response rating, Corn (corn (Zea mays); 31 g ai/ha): 0; Plant response rating, Corn (corn (Zea mays); 125 g ai/ha): 0; Plant response rating, Foxtail, Giant ([15]; 31 g ai/ha): 10; Plant response rating, Foxtail, Giant ([15]; 125 g ai/ha): 50; Plant response rating, Galium ([16]; 31 g ai/ha): 0; Plant response rating, Galium ([16]; 125 g ai/ha): 0; Plant response rating, Rice (rice (Oryza sativa)): 0; Plant response rating, Ducksalad [17]: 65; Plant response rating, Sedge, Umbrella [18]: 0
